This is an account of results in ChEMBL document CHEMBL1145883, “Lysine sulfonamides as novel HIV-protease inhibitors: optimization of the Nepsilon-acyl-phenyl spacer” (Bioorg Med Chem Lett, 2003).

In test [1] the target is Human immunodeficiency virus type 1 protease (Human immunodeficiency virus 1, UniProt Q72874). In words: Inhibitory activity against HIV-1 protease.
The subject of test [2] is Human immunodeficiency virus 1. In words: Antiviral activity. It counts as functional, organism-based.

What is called Ki is the equilibrium dissociation constant of an inhibitor or competing ligand from its target. Read a low Ki as a stronger hold on the target. In test [1], `Cc1ccc(S(=O)(=O)N(CC(C)C)[C@@H](CCCCNC(=O)CNc2ccccc2)C(=O)O)cc1` yielded a Ki of 0.0078 µM. The same measure, in the same setting: to `Cc1ccc(S(=O)(=O)N(CC(C)C)[C@@H](CCCCNC(=O)CN(Cc2ccccc2)c2ccccc2)C(=O)O)cc1` belongs 0.00072 µM. As usually defined, the EC50 is the concentration giving half of the maximal effect. Low values mean greater potency, high ones weaker potency. `Cc1ccc(S(=O)(=O)N(CC(C)C)[C@H](CO)CCCCNC(=O)CN(c2ccccc2)C(C)C)cc1`: in test [2], the EC50 was found to be 1.1 µM. In addition, in test [1], the affinity, expressed as Ki, was 0.016 µM. Take `Cc1ccc(S(=O)(=O)N(CC(C)C)[C@@H](CCCCNC(=O)CS(=O)(=O)c2ccccc2)C(=O)O)cc1`: the Ki in test [1] was determined as 0.02 µM. Still for that read-out and setting: under `Cc1ccc(S(=O)(=O)N(CC(C)C)[C@@H](CCCCNC(=O)OCc2ccccc2)C(=O)O)cc1` stands greater than 0.3 µM; under `CC(C)CN([C@H](CO)CCCCNC(=O)CN(Cc1ccccc1)c1ccccc1)S(=O)(=O)c1ccc(N)cc1`, 0.0024 µM. The same measure, in the same setting: to `Cc1ccc(S(=O)(=O)N(CC(C)C)[C@@H](CCCCNC(=O)N(Cc2ccccc2)Cc2ccccc2)C(=O)O)cc1` belongs 0.008 µM.

`Cc1ccc(S(=O)(=O)N(CC(C)C)[C@H](CO)CCCCNC(=O)CN(Cc2ccccc2)c2ccccc2)cc1`: in test [2], the EC50 is 4.2 µM. In test [1], this compound displayed a Ki of 0.0076 µM. Regarding `Cc1ccc(S(=O)(=O)N(CC(C)C)[C@H](CO)CCCCNC(=O)CN(c2ccccc2)c2ccccc2)cc1`, in test [2], the EC50 was 6.7 µM. The affinity in test [1] corresponds to a Ki of 0.012 µM. With `Cc1ccc(S(=O)(=O)N(CC(C)C)[C@@H](CCCCNC(=O)[C@@H](O)Cc2ccccc2)C(=O)O)cc1`, the affinity in test [1], expressed as Ki, was 0.0062 µM. This lies in the single-digit nanomolar range. The compound `Cc1ccc(S(=O)(=O)N(CC(C)C)[C@H](CO)CCCCNC(=O)CN(Cc2cccc(N)c2)c2ccccc2)cc1` showed an EC50 in test [2] of 3 µM. Moreover, the affinity in test [1] corresponds to a Ki of 0.0076 µM.

`Cc1ccc(S(=O)(=O)N(CC(C)C)[C@@H](CCCCNC(=O)C(=O)Cc2ccccc2)C(=O)O)cc1` registered a Ki in test [1] of 0.014 µM. Same read-out and setting: under `Cc1ccc(S(=O)(=O)N(CC(C)C)[C@@H](CCCCNC(=O)NCc2ccccc2)C(=O)O)cc1` stands 0.032 µM. The same measure, in the same setting: under `Cc1ccc(S(=O)(=O)N(CC(C)C)[C@@H](CCCCNC(=O)c2ccccc2)C(=O)O)cc1` stands greater than 0.3 µM. Compound `CC(C)CN([C@H](CO)CCCCNC(=O)CN(Cc1cccc(N)c1)c1ccccc1)S(=O)(=O)c1ccc(N)cc1` came in with an EC50 in test [2] of 0.524 µM. Further, affinity in test [1] was put at a Ki of 0.0069 µM.

Compound `CC(C)CN([C@H](CO)CCCCNC(=O)CN(Cc1cccc([N+](=O)[O-])c1)c1ccccc1)S(=O)(=O)c1ccc(N)cc1` yielded an EC50 in test [2] of 0.339 µM. Also, in test [1], affinity was put at a Ki of 0.0012 µM. As to `Cc1ccc(S(=O)(=O)N(CC(C)C)[C@@H](CCCCNC(=O)CCc2ccccc2)C(=O)O)cc1`, the Ki in test [1] came to 0.0069 µM. `Cc1ccc(S(=O)(=O)N(CC(C)C)[C@@H](CCCCNC(=O)Cc2ccccc2)C(=O)O)cc1` showed a Ki in test [1] greater than 0.3 µM. On to `COc1cccc(CN(CC(=O)NCCCC[C@@H](CO)N(CC(C)C)S(=O)(=O)c2ccc(C)cc2)c2ccccc2)c1OC`, for which the EC50 in test [2] came out at 0.76 µM. In addition, in test [1], the Ki is 0.0024 µM. `CN[C@@H](Cc1ccccc1)C(=O)NCCCC[C@@H](C(=O)O)N(CC(C)C)S(=O)(=O)c1ccc(C)cc1`: the affinity in test [1] corresponds to a Ki of 0.0021 µM.

`Cc1ccc(S(=O)(=O)N(CC(C)C)[C@H](CO)CCCCNC(=O)CN(Cc2cccc([N+](=O)[O-])c2)c2ccccc2)cc1` showed an EC50 in test [2] of 0.73 µM. Besides, in test [1], the Ki was found to be 0.0014 µM. With `COc1ccc(CN(CC(=O)NCCCC[C@@H](CO)N(CC(C)C)S(=O)(=O)c2ccc(N)cc2)c2ccccc2)cc1`, in test [1], the Ki worked out at 0.0024 µM.

In test [2], `CC(C)CN([C@H](CO)CCCCNC(=O)CN(Cc1ccc([N+](=O)[O-])cc1)c1ccccc1)S(=O)(=O)c1ccc(N)cc1` yielded an EC50 of 0.54 µM. In test [1], this compound had a Ki of 0.00059 µM. With `Cc1ccc(S(=O)(=O)N(CC(C)C)[C@@H](CCCCNC(=O)/C=C/c2ccccc2)C(=O)O)cc1`, the Ki in test [1] is greater than 0.3 µM. With `COc1ccc(CN(CC(=O)NCCCC[C@@H](CO)N(CC(C)C)S(=O)(=O)c2ccc(C)cc2)c2ccccc2)cc1`, the EC50 in test [2] is greater than 10 µM. The compound also gave a Ki in test [1] of 0.0073 µM. In test [1], `Cc1ccc(S(=O)(=O)N(CC(C)C)[C@@H](CCCCNC(=O)CCCc2ccccc2)C(=O)O)cc1` gave a Ki greater than 0.3 µM. Take `COc1ccc(CN(CC(=O)NCCCC[C@@H](CO)N(CC(C)C)S(=O)(=O)c2ccc(N)cc2)c2ccccc2)cc1OC`: the response in test [2] was half-maximal at 0.366 µM (EC50). The compound further registered a Ki in test [1] of 0.0029 µM. `Cc1ccc(S(=O)(=O)N(CC(C)C)[C@H](CO)CCCCNC(=O)CN(CCc2ccccc2)c2ccccc2)cc1`: the EC50 in test [2] is greater than 10 µM. In test [1], this compound displayed a Ki of 0.052 µM. `Cc1ccc(S(=O)(=O)N(CC(C)C)[C@@H](CCCCNC(=O)[C@@H](N)Cc2ccccc2)C(=O)O)cc1`: the Ki in test [1] was found to be 0.0015 µM. Consider `Cc1ccc(S(=O)(=O)N(CC(C)C)[C@@H](CCCCNC(=O)N(C)Cc2ccccc2)C(=O)O)cc1`, for which, in test [1], the Ki stood at 0.055 µM. In test [1], `Cc1ccc(S(=O)(=O)N(CC(C)C)[C@@H](CCCCNC(=O)CN(C)c2ccccc2)C(=O)O)cc1` registered a Ki of 0.012 µM. Compound `CC(C)CN([C@H](CO)CCCCNC(=O)CN(Cc1cccc(F)c1)c1ccccc1)S(=O)(=O)c1ccc(N)cc1` showed an EC50 in test [2] of 1.1 µM. In addition, in test [1], affinity was put at a Ki of 0.0011 µM. In test [1], `Cc1ccc(S(=O)(=O)N(CC(C)C)[C@@H](CCCCNC(=O)C(c2ccccc2)c2ccccc2)C(=O)O)cc1` gave a Ki of 0.171 µM.

In test [1], `Cc1ccc(S(=O)(=O)N(CC(C)C)[C@@H](CCCCNC(=O)COc2ccccc2)C(=O)O)cc1` displayed a Ki of 0.018 µM. Same read-out and setting: to `Cc1ccc(S(=O)(=O)N(CC(C)C)[C@@H](CCCCNC(=O)C2CC2c2ccccc2)C(=O)O)cc1` (stereo partly specified) belongs greater than 0.3 µM. `Cc1ccc(S(=O)(=O)N(CC(C)C)[C@H](CO)CCCCNC(=O)CN(Cc2ccccc2[N+](=O)[O-])c2ccccc2)cc1` had an EC50 in test [2] of 3.5 µM. The Ki in test [1] was 0.0039 µM. As for `Cc1ccc(S(=O)(=O)N(CC(C)C)[C@@H](CCCCNC(=O)CSc2ccccc2)C(=O)O)cc1`, the affinity in test [1], expressed as Ki, was 0.018 µM. Consider `COc1ccc(CN(CC(=O)NCCCC[C@@H](CO)N(CC(C)C)S(=O)(=O)c2ccc(C)cc2)c2ccccc2)cc1OC`, for which the EC50 in test [2] stood at 1.3 µM. In test [1], the Ki was 0.0035 µM. For `CC(C)CN([C@H](CO)CCCCNC(=O)CN(Cc1ccccc1[N+](=O)[O-])c1ccccc1)S(=O)(=O)c1ccc(N)cc1` the same measures were 0.341 µM and 0.0015 µM. For the compound `COc1cccc(CN(CC(=O)NCCCC[C@@H](CO)N(CC(C)C)S(=O)(=O)c2ccc(N)cc2)c2ccccc2)c1OC`, the EC50 in test [2] amounted to 0.34 µM. That is a sub-micromolar value. `CC(C)CN([C@H](CO)CCCCNC(=O)CN(Cc1ccccc1F)c1ccccc1)S(=O)(=O)c1ccc(N)cc1` showed an EC50 in test [2] of 2.2 µM. Besides, affinity in test [1] was put at a Ki of 0.0023 µM. In turn, `CC(C)CN([C@H](CO)CCCCNC(=O)CN(Cc1ccc(F)cc1)c1ccccc1)S(=O)(=O)c1ccc(N)cc1` registered an EC50 in test [2] of 1 µM. In test [1], this compound returned a Ki of 0.0023 µM. As to `Cc1ccc(S(=O)(=O)N(CC(C)C)[C@@H](CCCCNC(=O)C(Cc2ccccc2)C(C)(C)C)C(=O)O)cc1` (stereo partly specified), in test [1], the Ki was greater than 0.3 µM.
